Measurements reported in US4386077A (Made Italiana s.r.l, priority 1981, dated 1983).

Assays:
[1] = Serum kinetics and absolute bioavailability of ^14 C-labelled CDP-choline and "ASONIC" after i.v. and oral administration in Cynomolgus monkeys; assay type: in vivo, Cynomolgus monkey; details: for Absolute bioavailability F: oral
Protocol: From the end of the curves serum concentration/time, it was possible to calculate the constant of the apparent elimination speed from the organism as well as the relative half-life. These values were utilized in calculating the AUC T30 hours →T.infin. for the total of the curves concentration/time in the same animal. The AUC To →T30 hrs was calculated by means of the trapezium methods. […] For each dosage, a randomized cross-over procedure was used. Seriated blood samples were collected until 30 hours after each administration. From the single curves concentration/time it was possible to calculate the AUC To →T30 hrs. After each administration, including the intravenous one, urine was collected at the following time intervals: 0-24 hours, 24-48 hours and 48-72 hours.

[2] = Cumulative urinary elimination in Cynomolgus monkeys; assay type: in vivo, Cynomolgus monkey
Protocol: Blood was collected at the following time: 0 (basal values) and 5, 10, 15, 30, 60 minutes, 2, 4, 7, 24 and 30 hours after the administration. From the end of the curves serum concentration/time, it was possible to calculate the constant of the apparent elimination speed from the organism as well as the relative half-life. These values were utilized in calculating the AUC T30 hours →T.infin. for the total of the curves concentration/time in the same animal. The AUC To →T30 hrs was calculated by means of the trapezium methods. […] For each dosage, a randomized cross-over procedure was used. Seriated blood samples were collected until 30 hours after each administration. From the single curves concentration/time it was possible to calculate the AUC To →T30 hrs. After each administration, including the intravenous one, urine was collected at the following time intervals: 0-24 hours, 24-48 hours and 48-72 hours.

In the case of `C[N+](C)(C)CCOP(=O)(O)OP(=O)([O-])OC[C@H]1O[C@@H](n2ccc(N)nc2=O)[C@H](O)[C@@H]1O` [CDP-choline, cytidine diphosphocholine], the Serum concentration ([1]; monkey no. 2, 25 mg/kg i.v., 30') is reported as 3467 DPM/ml, the Serum concentration ([1]; monkey no. 2, 25 mg/kg i.v., 60') is reported as 2625 DPM/ml and the Serum concentration ([1]; monkey no. 2, 25 mg/kg i.v., 2 hr) is reported as 2630 DPM/ml. For the same compound, the Serum concentration ([1]; monkey no. 2, 25 mg/kg i.v., 4 hr) was 3369 DPM/ml, the Serum concentration ([1]; monkey no. 2, 25 mg/kg i.v., 7 hr) was 4013 DPM/ml and the Serum concentration ([1]; monkey no. 2, 25 mg/kg i.v., 24 hr) was 2258 DPM/ml. For the same compound, the Serum concentration ([1]; monkey no. 2, 25 mg/kg i.v., 30 hr) was 2145 DPM/ml, the Serum concentration ([1]; monkey no. 2, 200 mg/kg per os, 15') was 61 DPM/ml and the Serum concentration ([1]; monkey no. 2, 200 mg/kg per os, 45') was 59 DPM/ml. The Serum concentration ([1]; monkey no. 2, 200 mg/kg per os, 60') was 94 DPM/ml, the Serum concentration ([1]; monkey no. 2, 200 mg/kg per os, 7 hr) was 696 DPM/ml and the Serum concentration ([1]; monkey no. 2, 200 mg/kg per os, 9 hr) was 595 DPM/ml. It also gave a Serum concentration ([1]; monkey no. 2, 200 mg/kg per os, 24 hr) of 417 DPM/ml, a Serum concentration ([1]; monkey no. 2, 200 mg/kg per os, 30 hr) of 303 DPM/ml and a Serum concentration ([1]; monkey no. 2, 400 mg/kg per os, 60') of 69 DPM/ml. For the same compound, the Serum concentration ([1]; monkey no. 2, 400 mg/kg per os, 90') was 52 DPM/ml, the Serum concentration ([1]; monkey no. 2, 400 mg/kg per os, 2 hr) was 81 DPM/ml and the Serum concentration ([1]; monkey no. 2, 400 mg/kg per os, 3 hr) was 174 DPM/ml. It also gave a Serum concentration ([1]; monkey no. 2, 400 mg/kg per os, 4 hr) of 495 DPM/ml, a Serum concentration ([1]; monkey no. 2, 400 mg/kg per os, 6 hr) of 1.401 DPM/ml and a Serum concentration ([1]; monkey no. 2, 400 mg/kg per os, 7 hr) of 2.560 DPM/ml. For the same compound, the Serum concentration ([1]; monkey no. 2, 400 mg/kg per os, 8 hr) was 4.235 DPM/ml, the Serum concentration ([1]; monkey no. 2, 400 mg/kg per os, 9 hr) was 4.450 DPM/ml and the Serum concentration ([1]; monkey no. 2, 400 mg/kg per os, 24 hr) was 449 DPM/ml. The Serum concentration ([1]; monkey no. 2, 400 mg/kg per os, 30 hr) was 401 DPM/ml, the “Absolute bioavailability” value ([1]; monkeys, oral control dosages) was “much lower” and the “Absolute bioavailability F” value ([1]; monkeys, 200 mg/kg as CDP-choline) was 0.2143. The “Absolute bioavailability F” value ([1]; monkeys, 400 mg/kg as CDP-choline) was 0.6174, the Cumulative urinary elimination ([2]; average and S.D. of 2 monkeys, 25 mg/kg i.v., 0-24 hr) was 50.65 ± 2.33 % OF THE ADMINISTERED DOSE and the Cumulative urinary elimination ([2]; average and S.D. of 2 monkeys, 25 mg/kg i.v., 0-72 hr) was 53.5 ± 3.25 % OF THE ADMINISTERED DOSE. The Cumulative urinary elimination ([2]; average and S.D. of 2 monkeys, 25 mg/kg i.v., 24-48 hr) was 2.5 ± 0.99 % OF THE ADMINISTERED DOSE, the Cumulative urinary elimination ([2]; average and S.D. of 2 monkeys, 25 mg/kg i.v., 48-72 hr) was 0.35 ± 0.07 % OF THE ADMINISTERED DOSE and the Cumulative urinary elimination ([2]; average and S.D. of 2 monkeys, 200 mg/kg per os, 0-24 hr) was 42.75 ± 6.15 % OF THE ADMINISTERED DOSE. For the same compound, the Cumulative urinary elimination ([2]; average and S.D. of 2 monkeys, 200 mg/kg per os, 0-72 hr) was 47.5 ± 3.11 % OF THE ADMINISTERED DOSE, the Cumulative urinary elimination ([2]; average and S.D. of 2 monkeys, 200 mg/kg per os, 24-48 hr) was 4.2 ± 2.83 % OF THE ADMINISTERED DOSE and the Cumulative urinary elimination ([2]; average and S.D. of 2 monkeys, 200 mg/kg per os, 48-72 hr) was 0.55 ± 0.21 % OF THE ADMINISTERED DOSE. For the same compound, the Cumulative urinary elimination ([2]; average and S.D. of 2 monkeys, 400 mg/kg per os, 0-24 hr) was 31.3 ± 9.3 % OF THE ADMINISTERED DOSE, the Cumulative urinary elimination ([2]; average and S.D. of 2 monkeys, 400 mg/kg per os, 0-72 hr) was 37.65 ± 8.98 % OF THE ADMINISTERED DOSE and the Cumulative urinary elimination ([2]; average and S.D. of 2 monkeys, 400 mg/kg per os, 24-48 hr) was 5.6 ± 0.56 % OF THE ADMINISTERED DOSE. For the same compound, the Cumulative urinary elimination ([2]; average and S.D. of 2 monkeys, 400 mg/kg per os, 48-72 hr) was 0.75 ± 0.21 % OF THE ADMINISTERED DOSE, the Cumulative urinary elimination ([2]; monkey no. 1, 25 mg/kg i.v., 0-24 hr) was 49 % OF THE ADMINISTERED DOSE and the Cumulative urinary elimination ([2]; monkey no. 1, 25 mg/kg i.v., 0-72 hr) was 51.2 % OF THE ADMINISTERED DOSE. For the same compound, the Cumulative urinary elimination ([2]; monkey no. 1, 25 mg/kg i.v., 24-48 hr) was 1.8 % OF THE ADMINISTERED DOSE, the Cumulative urinary elimination ([2]; monkey no. 1, 25 mg/kg i.v., 48-72 hr) was 0.4 % OF THE ADMINISTERED DOSE and the Cumulative urinary elimination ([2]; monkey no. 1, 200 mg/kg per os, 0-24 hr) was 38.4 % OF THE ADMINISTERED DOSE. The Cumulative urinary elimination ([2]; monkey no. 1, 200 mg/kg per os, 0-72 hr) was 45.3 % OF THE ADMINISTERED DOSE, the Cumulative urinary elimination ([2]; monkey no. 1, 200 mg/kg per os, 24-48 hr) was 6.2 % OF THE ADMINISTERED DOSE and the Cumulative urinary elimination ([2]; monkey no. 1, 200 mg/kg per os, 48-72 hr) was 0.7 % OF THE ADMINISTERED DOSE. For the same compound, the Cumulative urinary elimination ([2]; monkey no. 1, 400 mg/kg per os, 0-24 hr) was 24.7 % OF THE ADMINISTERED DOSE, the Cumulative urinary elimination ([2]; monkey no. 1, 400 mg/kg per os, 0-72 hr) was 31.3 % OF THE ADMINISTERED DOSE and the Cumulative urinary elimination ([2]; monkey no. 1, 400 mg/kg per os, 24-48 hr) was 6.0 % OF THE ADMINISTERED DOSE. The Cumulative urinary elimination ([2]; monkey no. 1, 400 mg/kg per os, 48-72 hr) was 0.6 % OF THE ADMINISTERED DOSE, the Cumulative urinary elimination ([2]; monkey no. 2, 25 mg/kg i.v., 0-24 hr) was 52.3 % OF THE ADMINISTERED DOSE and the Cumulative urinary elimination ([2]; monkey no. 2, 25 mg/kg i.v., 0-72 hr) was 55.8 % OF THE ADMINISTERED DOSE. For the same compound, the Cumulative urinary elimination ([2]; monkey no. 2, 25 mg/kg i.v., 24-48 hr) was 3.2 % OF THE ADMINISTERED DOSE, the Cumulative urinary elimination ([2]; monkey no. 2, 25 mg/kg i.v., 48-72 hr) was 0.3 % OF THE ADMINISTERED DOSE and the Cumulative urinary elimination ([2]; monkey no. 2, 200 mg/kg per os, 0-24 hr) was 47.1 % OF THE ADMINISTERED DOSE. For the same compound, the Cumulative urinary elimination ([2]; monkey no. 2, 200 mg/kg per os, 0-72 hr) was 49.7 % OF THE ADMINISTERED DOSE, the Cumulative urinary elimination ([2]; monkey no. 2, 200 mg/kg per os, 24-48 hr) was 2.2 % OF THE ADMINISTERED DOSE and the Cumulative urinary elimination ([2]; monkey no. 2, 200 mg/kg per os, 48-72 hr) was 0.4 % OF THE ADMINISTERED DOSE. The Cumulative urinary elimination ([2]; monkey no. 2, 400 mg/kg per os, 0-24 hr) was 37.9 % OF THE ADMINISTERED DOSE, the Cumulative urinary elimination ([2]; monkey no. 2, 400 mg/kg per os, 0-72 hr) was 44.0 % OF THE ADMINISTERED DOSE and the Cumulative urinary elimination ([2]; monkey no. 2, 400 mg/kg per os, 24-48 hr) was 5.2 % OF THE ADMINISTERED DOSE. The Cumulative urinary elimination ([2]; monkey no. 2, 400 mg/kg per os, 48-72 hr) was 0.9 % OF THE ADMINISTERED DOSE.
